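A five-concentration, 48-hour dose response in 96-well plates underlies each endpoint, interpolated linearly between surrounding concentrations. At the GI50, growth is halved.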 Active and inactive are the calls of the source. No stated cut-off is given here; in the data, active = GI50 up to about 1.1 µM and inactive = higher.
Assays:
Assay in all cases: DTP human tumour cell line panel, 48 h
[1] = test system: 786-0
[2] = test system: CAKI-1
[3] = test system: HCT-15
[4] = test system: IGROV-1
[5] = test system: K562
[6] = test system: MOLT-4
[7] = test system: NCI-H460
[8] = test system: NCI-H522
[9] = test system: OVCAR-5
[10] = test system: OVCAR-8
[11] = test system: RPMI-8226
[12] = test system: SK-MEL-2
[13] = test system: SK-MEL-5
[14] = test system: SNB-75
[15] = test system: SW-620
[16] = test system: UACC-257
[17] = test system: LOX IMVI

Compound | GI50 [1] | GI50 [2] | GI50 [3] [µM] | GI50 [4] | GI50 [5] | GI50 [6] | GI50 [7] | GI50 [8] | GI50 [9] | GI50 [10] | GI50 [11] | GI50 [12] | GI50 [13] | GI50 [14] | GI50 [15] | GI50 [16] | GI50 [17]
C[n+]1c2ccccc2c(CNC(CS)C(=O)O)c2ccccc21 (stereo not drawn) | 31.8 µM (inactive) | 29.6 µM (inactive) | 20.7 | 18.8 µM (inactive) | 31.8 µM (inactive) | 12.4 µM (inactive) | 21.8 µM (inactive) | 17.8 µM (inactive) | 44.5 µM (inactive) | 25.4 µM (inactive) | 16.9 µM (inactive) | 26.8 µM (inactive) | > 10 µM (inactive) | 21.7 µM (inactive) | 32.4 µM (inactive) | 38.5 µM (inactive) | 
[C-]#[N+][C@@H]1C2[C@H](CC[C@@]1(C)O)C(=C)CC[C@@H]2[C@@]1(C)CC[C@H](Cl)C(C)(C)O1 (stereo partly drawn) | 10.3 µM (inactive) | 4.82 µM (inactive) | 2.55 | 3.49 µM (inactive) | 3.24 µM (inactive) |  | 8.3 µM (inactive) | 4.42 µM (inactive) |  | 3.29 µM (inactive) | 2.51 µM (inactive) | 6.3 µM (inactive) | 3.02 µM (inactive) | 7.87 µM (inactive) | 5.64 µM (inactive) | 8.32 µM (inactive) | 3.95 µM (inactive)
CC1CC(=O)Nc2ccccc2N1C(=O)CN1CCC(CCCCN(C)C)CC1 (stereo not drawn) | > 100 µM (inactive) | > 100 µM (inactive) | > 100 | > 100 µM (inactive) | > 100 µM (inactive) | > 100 µM (inactive) | > 100 µM (inactive) | > 100 µM (inactive) | > 100 µM (inactive) | > 100 µM (inactive) | > 100 µM (inactive) | > 100 µM (inactive) | > 100 µM (inactive) | > 100 µM (inactive) | > 100 µM (inactive) | > 100 µM (inactive) | > 100 µM (inactive)
CC1(C)C2CCC13CS(=O)(=O)N1O[C@]13C(=O)O2 (stereo partly drawn) | > 100 µM (inactive) |  | > 100 | > 100 µM (inactive) | > 100 µM (inactive) | > 100 µM (inactive) | > 100 µM (inactive) | > 100 µM (inactive) | > 100 µM (inactive) | > 100 µM (inactive) | > 100 µM (inactive) | > 100 µM (inactive) |  | 60.8 µM (inactive) | > 100 µM (inactive) | > 100 µM (inactive) | > 100 µM (inactive)
COC(=O)CCC(NC(=S)N/N=C(\C)c1cnccn1)C(=O)OC (stereo not drawn) | 58.6 µM (inactive) |  | 44.5 | 69.8 µM (inactive) | 22.9 µM (inactive) | 15.7 µM (inactive) | 53 µM (inactive) | 27 µM (inactive) | 21 µM (inactive) | 38.6 µM (inactive) | 44.9 µM (inactive) | 68.1 µM (inactive) | 34.2 µM (inactive) | 85.3 µM (inactive) | 49.3 µM (inactive) | 33.8 µM (inactive) | 31.6 µM (inactive)
COc1ccc2nc3cc(Cl)ccc3c(NC(C)CCCN(CCCl)CCCl)c2c1 (stereo not drawn) | 0.31 µM (active) | 0.785 µM (active) | 1.11 | 0.317 µM (active) | 0.262 µM (active) | 0.054 µM (active) | 0.159 µM (active) | 0.55 µM (active) | 0.929 µM (active) | 0.169 µM (active) | 0.293 µM (active) | 1.1 µM (active) | 1.97 µM (inactive) | 1.42 µM (inactive) | 0.116 µM (active) | 1.43 µM (inactive) | 0.176 µM (active)
CC(C)(C)c1ccnc(/N=C2\N/C(=N\c3cc(C(C)(C)C)ccn3)c3ccccc32)c1 | 19.3 µM (inactive) | 26.6 µM (inactive) | 24.3 | 23.1 µM (inactive) | 41.3 µM (inactive) | 7.14 µM (inactive) | 38.7 µM (inactive) | 21.6 µM (inactive) | > 100 µM (inactive) | 17.9 µM (inactive) |  | 56.9 µM (inactive) |  | > 100 µM (inactive) | 42.7 µM (inactive) | 23 µM (inactive) | 35.9 µM (inactive)
NC(=O)C(=O)Cc1nc2ccccc2s1 | > 100 µM (inactive) |  | > 100 |  | > 100 µM (inactive) | > 100 µM (inactive) | > 100 µM (inactive) | > 100 µM (inactive) | > 100 µM (inactive) | > 100 µM (inactive) | > 100 µM (inactive) | > 100 µM (inactive) |  | 68.2 µM (inactive) | > 100 µM (inactive) | > 100 µM (inactive) | > 100 µM (inactive)
COC(=O)C1(C)NCCc2c1[nH]c1ccccc21 (stereo not drawn) | > 100 µM (inactive) | > 100 µM (inactive) | > 100 | > 100 µM (inactive) | > 100 µM (inactive) | > 100 µM (inactive) |  | > 100 µM (inactive) | > 100 µM (inactive) | > 100 µM (inactive) | > 100 µM (inactive) | > 100 µM (inactive) | > 100 µM (inactive) | 16.8 µM (inactive) | > 100 µM (inactive) |  | 
COc1ccc(C(=O)C(C(=O)CC(=O)Nc2cccc(C(F)(F)F)c2)c2ccc(OC)cc2)cc1 (stereo not drawn) | > 100 µM (inactive) | > 100 µM (inactive) | > 100 | > 100 µM (inactive) | > 100 µM (inactive) | > 100 µM (inactive) | > 100 µM (inactive) | > 100 µM (inactive) | 7.73 µM (inactive) | > 100 µM (inactive) | > 100 µM (inactive) | > 100 µM (inactive) | > 100 µM (inactive) | 30.8 µM (inactive) | > 100 µM (inactive) | > 100 µM (inactive) | 
CCC12C=C(C(=O)OC)N3c4ccccc4C4CCN(CCC1)C2C43 (stereo not drawn) | 21.3 µM (inactive) | 35.6 µM (inactive) | 64.3 | > 100 µM (inactive) | 37.7 µM (inactive) | 66.8 µM (inactive) |  | 75.7 µM (inactive) | 40.9 µM (inactive) | > 100 µM (inactive) | 50.6 µM (inactive) | > 100 µM (inactive) | 72.1 µM (inactive) | 30.2 µM (inactive) | 59.7 µM (inactive) | 34.2 µM (inactive) | 59.4 µM (inactive)
C[S+]=c1sc2ccccc2s1 | > 100 µM (inactive) | > 100 µM (inactive) | > 100 | > 100 µM (inactive) | > 100 µM (inactive) | > 100 µM (inactive) | > 100 µM (inactive) | > 100 µM (inactive) | > 100 µM (inactive) | > 100 µM (inactive) | > 100 µM (inactive) | > 100 µM (inactive) | > 100 µM (inactive) | > 100 µM (inactive) | > 100 µM (inactive) | > 100 µM (inactive) | > 100 µM (inactive)
O=C(Nc1ccccc1C(=O)O)C(=O)C(C(=O)c1ccccc1-c1ccccc1)C1OC(=O)c2ccccc21 (stereo not drawn) | 18 µM (inactive) | 36 µM (inactive) | 16.5 | 25.6 µM (inactive) | 36.1 µM (inactive) | 21.8 µM (inactive) | 17.8 µM (inactive) | 16.2 µM (inactive) | 23.6 µM (inactive) | 15.7 µM (inactive) | 25.2 µM (inactive) | 38 µM (inactive) | 19.2 µM (inactive) | 25.1 µM (inactive) | 27.3 µM (inactive) | 16.7 µM (inactive) | 18.7 µM (inactive)
CCc1ccccc1N1C(=O)C(=O)C(c2nc3ccccc3s2)C(=O)C1=O | > 100 µM (inactive) | > 100 µM (inactive) | > 100 | > 100 µM (inactive) | 44.3 µM (inactive) | 42.2 µM (inactive) | > 100 µM (inactive) | > 100 µM (inactive) | > 100 µM (inactive) | 41.8 µM (inactive) | 72.4 µM (inactive) | > 100 µM (inactive) | 92 µM (inactive) |  | 83.8 µM (inactive) | > 100 µM (inactive) | > 100 µM (inactive)
N#CC(C#N)=c1ccc(=C2N3CCCC3CN2C23CC4CC(CC(C4)C2)C3)cc1 (stereo not drawn) | > 100 µM (inactive) |  | > 100 | > 100 µM (inactive) | > 100 µM (inactive) | > 100 µM (inactive) | > 100 µM (inactive) | > 100 µM (inactive) | > 100 µM (inactive) | > 100 µM (inactive) | > 100 µM (inactive) | > 100 µM (inactive) | > 100 µM (inactive) | 26.4 µM (inactive) | > 100 µM (inactive) | > 100 µM (inactive) | > 100 µM (inactive)
C[C@]12CCC(=O)C(OC(=O)c3ccc([N+](=O)[O-])cc3)=C1CCC2=O | > 100 µM (inactive) | > 100 µM (inactive) | > 100 | > 100 µM (inactive) |  | > 100 µM (inactive) | > 100 µM (inactive) | > 100 µM (inactive) | > 100 µM (inactive) | > 100 µM (inactive) | > 100 µM (inactive) |  | > 100 µM (inactive) | > 100 µM (inactive) | > 100 µM (inactive) | > 100 µM (inactive) | > 100 µM (inactive)
C#CC1(O)CCC2C3CCc4cc(Oc5nc(F)nc(-c6c7ccccc7c7n6CCS7)n5)ccc4C3CC[C@@]21C (stereo partly drawn) | 34.1 µM (inactive) | 28.8 µM (inactive) | 15.1 | 29.2 µM (inactive) | 21.3 µM (inactive) | 26.9 µM (inactive) | 35.4 µM (inactive) | 4.37 µM (inactive) | > 100 µM (inactive) | 27.7 µM (inactive) | 19.6 µM (inactive) | 5.62 µM (inactive) | 17.4 µM (inactive) | 12.2 µM (inactive) | 32.6 µM (inactive) | 36.1 µM (inactive) | 
Cc1ccc(S(=O)(=O)N/N=C2\C(=O)C3CC2C(Cl)C3Cl)cc1 (stereo not drawn) | > 100 µM (inactive) | > 100 µM (inactive) | > 100 | > 100 µM (inactive) | > 100 µM (inactive) | > 100 µM (inactive) | > 100 µM (inactive) |  | > 100 µM (inactive) | > 100 µM (inactive) | > 100 µM (inactive) |  | > 100 µM (inactive) | 55 µM (inactive) | > 100 µM (inactive) | > 100 µM (inactive) | > 100 µM (inactive)

From ChEMBL document CHEMBL1201862, “PubChem BioAssay data set” (2004)
